# According to ChEMBL document CHEMBL1150808, “General behavior, toxicity, and cytotoxic activity of elenoside, a lignan from Justicia hyssopifolia” (J Nat Prod, 2001):
# How the values were obtained:
# Mus musculus [1] = species on record: Mus musculus; experiment: Toxicity in Swiss albino mouse assessed as reduction in spontaneous activity after 60 mins by Irwin test; type: organism-based; conditions: in vivo, 1 h
# Mus musculus [2] = species on record: Mus musculus; experiment: Toxicity in Swiss albino mouse assessed as reduction in motor affective response by Irwin test; type: organism-based; conditions: in vivo
# Mus musculus [3] = species on record: Mus musculus; experiment: Toxicity in Swiss albino mouse assessed as reduction in sensory-motor response by Irwin test; type: organism-based; conditions: in vivo
# Mus musculus [4] = species on record: Mus musculus; experiment: Toxicity in Swiss albino mouse assessed as reduction in muscular tone after 180 mins by Irwin test; type: organism-based; conditions: in vivo, 3 h
# Mus musculus [5] = species on record: Mus musculus; experiment: Toxicity in Swiss albino mouse assessed as reduction in equilibrium after 180 mins by Irwin test; type: organism-based; conditions: in vivo, 3 h
# Mus musculus [6] = species on record: Mus musculus; experiment: Toxicity in Swiss albino mouse assessed as loss of righting reflex after 30 mins by Irwin test; type: organism-based; conditions: in vivo, 0.5 h
# Mus musculus [7] = species on record: Mus musculus; experiment: Toxicity in Swiss albino mouse assessed as loss of hypotonic gait after 30 mins by Irwin test; type: organism-based; conditions: in vivo, 0.5 h
# Mus musculus [8] = species on record: Mus musculus; experiment: Toxicity in Swiss albino mouse assessed as loss of sight after 30 mins by Irwin test; type: organism-based; conditions: in vivo, 0.5 h
# [9] = Toxicity in Swiss albino mouse assessed as death after 5 days assessed after 24 hrs post treatment by Irwin test; type: organism-based; conditions: in vivo
# Mus musculus [10] = species on record: Mus musculus; experiment: Toxicity in Swiss albino mouse assessed as reduction in tremors by Irwin test; type: organism-based; conditions: in vivo
# Mus musculus [11] = experiment: Toxicity in Swiss albino mouse assessed as loss of spontaneous movement at 25 mg/kg, ip after 1 hr by Lim test; type: organism-based; parameters: dose 25 mg/kg, route intraperitoneal; conditions: in vivo
# Mus musculus [12] = experiment: Toxicity in Swiss albino mouse assessed as loss of muscle tone at 25 mg/kg, ip after 1 hr by Lim test; type: organism-based, Muscle tissue; parameters: dose 25 mg/kg, route intraperitoneal; conditions: in vivo
# Mus musculus [13] = experiment: Toxicity in Swiss albino mouse assessed as loss of righting reflex at 25 mg/kg, ip after 1 hr by Lim test; type: organism-based; parameters: dose 25 mg/kg, route intraperitoneal; conditions: in vivo
# Mus musculus [14] = experiment: Toxicity in Swiss albino mouse assessed as loss of spontaneous movement at 50 mg/kg, ip after 1 hr by Lim test; type: organism-based; parameters: dose 50 mg/kg, route intraperitoneal; conditions: in vivo
# Mus musculus [15] = experiment: Toxicity in Swiss albino mouse assessed as loss of muscle tone at 50 mg/kg, ip after 1 hr by Lim test; type: organism-based, Muscle tissue; parameters: dose 50 mg/kg, route intraperitoneal; conditions: in vivo
# Mus musculus [16] = experiment: Toxicity in Swiss albino mouse assessed as loss of righting reflex at 50 mg/kg, ip after 1 hr by Lim test; type: organism-based; parameters: dose 50 mg/kg, route intraperitoneal; conditions: in vivo
# Mus musculus [17] = experiment: Toxicity in Swiss albino mouse assessed as loss of spontaneous movement at 10 mg/kg, ip after 1 hr by Lim test; type: organism-based; parameters: dose 10 mg/kg, route intraperitoneal; conditions: in vivo
# Mus musculus [18] = experiment: Toxicity in Swiss albino mouse assessed as loss of muscle tone at 10 mg/kg, ip after 1 hr by Lim test; type: organism-based, Muscle tissue; parameters: dose 10 mg/kg, route intraperitoneal; conditions: in vivo
# Mus musculus [19] = experiment: Toxicity in Swiss albino mouse assessed as loss of righting reflex at 10 mg/kg, ip after 1 hr by Lim test; type: organism-based; parameters: dose 10 mg/kg, route intraperitoneal; conditions: in vivo
# CCRF-CEM [20] = experiment: Growth inhibition of human CCRF-CEM cells at 100 uM; type: functional; conditions: read-out: GI
# CCRF-CEM [21] = experiment: Growth inhibition of human CCRF-CEM cells; type: functional
# K562 [22] = experiment: Growth inhibition of human K562 cells at 100 uM; type: functional; conditions: read-out: GI
# K562 [23] = experiment: Growth inhibition of human K562 cells; type: functional
# MOLT-4 [24] = experiment: Growth inhibition of human MOLT4 cells at 100 uM; type: functional; conditions: read-out: GI
# MOLT-4 [25] = experiment: Growth inhibition of human MOLT4 cells; type: functional
# RPMI-8226 [26] = experiment: Growth inhibition of human RPMI8226 cells at 100 uM; type: functional; conditions: read-out: GI
# RPMI-8226 [27] = experiment: Growth inhibition of human RPMI8226 cells; type: functional
# M19-MEL [28] = experiment: Growth inhibition of human M19-MEL cells at 100 uM; type: functional; conditions: read-out: GI
# M19-MEL [29] = experiment: Growth inhibition of human M19-MEL cells; type: functional
# SK-MEL-2 [30] = experiment: Growth inhibition of human SK-MEL-2 cells at 100 uM; type: functional; conditions: read-out: GI
# SK-MEL-2 [31] = experiment: Growth inhibition of human SK-MEL-2 cells; type: functional
# SK-MEL-5 [32] = experiment: Growth inhibition of human SK-MEL-5 cells at 100 uM; type: functional; conditions: read-out: GI
# SK-MEL-5 [33] = experiment: Growth inhibition of human SK-MEL-5 cells; type: functional
# UACC-257 [34] = experiment: Growth inhibition of human UACC257 cells at 100 uM; type: functional; conditions: read-out: GI
# UACC-257 [35] = experiment: Growth inhibition of human UACC257 cells; type: functional
# SF-268 [36] = experiment: Growth inhibition of human SF268 cells at 100 uM; type: functional; conditions: read-out: GI
# SF-268 [37] = experiment: Growth inhibition of human SF268 cells; type: functional
# SNB-19 [38] = experiment: Growth inhibition of human SNB19 cells at 100 uM; type: functional; conditions: read-out: GI
# SNB-19 [39] = experiment: Growth inhibition of human SNB19 cells; type: functional
# SNB-75 [40] = experiment: Growth inhibition of human SNB75 cells at 100 uM; type: functional; conditions: read-out: GI
# SNB-75 [41] = experiment: Growth inhibition of human SNB75 cells; type: functional
# UO-31 [42] = experiment: Growth inhibition of human UO31 cells at 100 uM; type: functional; conditions: read-out: GI
# UO-31 [43] = experiment: Growth inhibition of human UO31 cells; type: functional
# DMS-273 [44] = experiment: Growth inhibition of human DMS273 cells at 100 uM; type: functional; conditions: read-out: GI
# DMS-273 [45] = experiment: Growth inhibition of human DMS273 cells; type: functional
# NCI-H226 [46] = experiment: Growth inhibition of human NCI-H226 cells at 100 uM; type: functional; conditions: read-out: GI
# NCI-H226 [47] = experiment: Growth inhibition of human NCI-H226 cells; type: functional
# NCI-H23 [48] = experiment: Growth inhibition of human NCI-H23 cells at 100 uM; type: functional; conditions: read-out: GI
# NCI-H23 [49] = experiment: Growth inhibition of human NCI-H23 cells
# NCI-H522 [50] = experiment: Growth inhibition of human NCI-H522 cells at 100 uM; type: functional; conditions: read-out: GI
# NCI-H522 [51] = experiment: Growth inhibition of human NCI-H522 cells; type: functional
# HCC 2998 [52] = experiment: Growth inhibition of human HCC2998 cells at 100 uM; type: functional; conditions: read-out: GI
# HCC 2998 [53] = experiment: Growth inhibition of human HCC2998 cells; type: functional
# HCT-116 [54] = experiment: Growth inhibition of human HCT116 cells at 100 uM; type: functional; conditions: read-out: GI
# HCT-116 [55] = experiment: Growth inhibition of human HCT116 cells; type: functional
# KM12 [56] = experiment: Growth inhibition of human KM12 cells at 100 uM; type: functional; conditions: read-out: GI
# KM12 [57] = experiment: Growth inhibition of human KM12 cells; type: functional
# OVCAR-3 [58] = experiment: Growth inhibition of human OVCAR-3 cells at 100 uM; type: functional; conditions: read-out: GI
# OVCAR-3 [59] = experiment: Growth inhibition of human OVCAR-3 cells; type: functional
# OVCAR-4 [60] = experiment: Growth inhibition of human OVCAR4 cells at 100 uM; type: functional; conditions: read-out: GI
# OVCAR-4 [61] = experiment: Growth inhibition of human OVCAR4 cells; type: functional
# Mus musculus [62] = species on record: Mus musculus; experiment: Toxicity in Swiss albino mouse assessed as reduction in twitches by Irwin test; type: organism-based; conditions: in vivo
# Mus musculus [63] = species on record: Mus musculus; experiment: Toxicity in Swiss albino mouse assessed as reduction in convulsions by Irwin test; type: organism-based; conditions: in vivo
# Mus musculus [64] = species on record: Mus musculus; experiment: Toxicity in Swiss albino mouse assessed as involvement of autonomic nervous system; type: organism-based; conditions: in vivo
compound,measurement,setting,value
O=C1OCc2c1cc1ccc(O)c(O[C@@H]3O[C@H](CO)[C@@H](O)[C@H](O)[C@H]3O)c1c2-c1ccc2c(c1)OCO2 [ELENOSIDE],Activity,Mus musculus [1],Toxic
same,Activity,Mus musculus [2],Dose-dependent effect
same,Activity,Mus musculus [3],Dose-dependent effect
same,Activity,Mus musculus [4],Dose-dependent effect
same,Activity,Mus musculus [5],Toxic
same,Activity,Mus musculus [6],Toxic
same,Activity,Mus musculus [7],Toxic
same,Activity,Mus musculus [8],Toxic
same,LD50 at 5 days,[9],3.05 mg/kg
same,Activity,Mus musculus [10],Non-toxic
same,Activity,Mus musculus [11],50%
same,Activity,Mus musculus [12],50%
same,Activity,Mus musculus [13],20%
same,Activity,Mus musculus [14],60%
same,Activity,Mus musculus [15],60%
same,Activity,Mus musculus [16],20%
same,Activity,Mus musculus [17],90%
same,Activity,Mus musculus [18],90%
same,Activity,Mus musculus [19],40%
same,inhibition of growth at 100 µM,CCRF-CEM [20],84%
same,GI50,CCRF-CEM [21],34.9 µM
same,inhibition of growth at 100 µM,K562 [22],79%
same,GI50,K562 [23],39.5 µM
same,inhibition of growth at 100 µM,MOLT-4 [24],88%
same,GI50,MOLT-4 [25],34.3 µM
same,inhibition of growth at 100 µM,RPMI-8226 [26],97%
same,GI50,RPMI-8226 [27],34.6 µM
same,inhibition of growth at 100 µM,M19-MEL [28],81%
same,GI50,M19-MEL [29],38.2 µM
same,inhibition of growth at 100 µM,SK-MEL-2 [30],84%
same,GI50,SK-MEL-2 [31],33.5 µM
same,inhibition of growth at 100 µM,SK-MEL-5 [32],114%
same,GI50,SK-MEL-5 [33],26.2 µM
same,inhibition of growth at 100 µM,UACC-257 [34],72%
same,GI50,UACC-257 [35],37.9 µM
same,inhibition of growth at 100 µM,SF-268 [36],70%
same,GI50,SF-268 [37],57.1 µM
same,inhibition of growth at 100 µM,SNB-19 [38],81%
same,GI50,SNB-19 [39],36 µM
same,inhibition of growth at 100 µM,SNB-75 [40],66%
same,GI50,SNB-75 [41],55.2 µM
same,inhibition of growth at 100 µM,UO-31 [42],80%
same,GI50,UO-31 [43],27.2 µM
same,inhibition of growth at 100 µM,DMS-273 [44],67%
same,GI50,DMS-273 [45],47.5 µM
same,inhibition of growth at 100 µM,NCI-H226 [46],72%
same,GI50,NCI-H226 [47],48.4 µM
same,inhibition of growth at 100 µM,NCI-H23 [48],72%
same,GI50,NCI-H23 [49],47.5 µM
same,inhibition of growth at 100 µM,NCI-H522 [50],126%
same,GI50,NCI-H522 [51],22.6 µM
same,inhibition of growth at 100 µM,HCC 2998 [52],87%
same,GI50,HCC 2998 [53],38.2 µM
same,inhibition of growth at 100 µM,HCT-116 [54],77%
same,GI50,HCT-116 [55],39.7 µM
same,inhibition of growth at 100 µM,KM12 [56],77%
same,GI50,KM12 [57],23.4 µM
same,inhibition of growth at 100 µM,OVCAR-3 [58],60%
same,GI50,OVCAR-3 [59],64.6 µM
same,inhibition of growth at 100 µM,OVCAR-4 [60],66%
same,GI50,OVCAR-4 [61],56.2 µM
same,Activity,Mus musculus [62],Non-toxic
same,Activity,Mus musculus [63],Non-toxic
same,Activity,Mus musculus [64],Toxic
